Measured values from US12421269B2, “SGLT2/DPP4 inhibitor and application thereof” (CGeneTech (Suzhou, China) CO., Ltd., priority 2019, dated 2025).

Legend:
Human-SGLT1 = molecular target: T1, Human-SGLT1 (Homo sapiens, UniProt P13866); test: SGLT1 glucose transport assay ([14C]-labeled glucose uptake); type: cell-based; settings: cells stably expressing Human-SGLT1, 37° C., 2 hours
T1 sequence (P13866 1-664): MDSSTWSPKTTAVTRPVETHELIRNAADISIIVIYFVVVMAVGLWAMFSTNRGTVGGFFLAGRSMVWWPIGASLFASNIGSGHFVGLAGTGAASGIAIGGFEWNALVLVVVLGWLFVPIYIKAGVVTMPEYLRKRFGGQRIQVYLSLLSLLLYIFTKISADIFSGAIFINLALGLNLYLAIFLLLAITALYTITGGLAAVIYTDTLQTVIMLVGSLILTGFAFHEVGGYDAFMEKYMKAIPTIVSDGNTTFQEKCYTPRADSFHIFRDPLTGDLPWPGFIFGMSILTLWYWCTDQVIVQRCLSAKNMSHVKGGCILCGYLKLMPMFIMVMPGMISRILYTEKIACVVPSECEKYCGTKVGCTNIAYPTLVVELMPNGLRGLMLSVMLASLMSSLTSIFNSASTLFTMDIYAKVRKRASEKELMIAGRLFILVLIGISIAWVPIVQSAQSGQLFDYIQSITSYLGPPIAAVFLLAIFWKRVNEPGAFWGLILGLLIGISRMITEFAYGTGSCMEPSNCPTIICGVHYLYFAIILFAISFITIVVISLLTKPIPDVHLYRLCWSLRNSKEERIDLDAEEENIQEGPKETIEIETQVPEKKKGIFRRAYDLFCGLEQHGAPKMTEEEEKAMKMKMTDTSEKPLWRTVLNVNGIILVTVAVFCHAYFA
Experimental: To test the effect of compounds on the glucose transport activity of SGLT1 transporters by measuring the amount of [^14C]-labeled glucose entering highly expressed Human-SGLT1 cells.
The cells stably expressing Human-SGLT1 used for the experiments were constructed by WuXi AppTec Shanghai. The SGLT1 cells were plated in Cytostar-T (PerkinElmer) 96-well cell culture plates and cultured overnight at 5% CO2, 37° C.
Experimental buffer: 10 mM 4-hydroxyethylpiperazine ethanesulfonic acid (HEPES), 1.2 mM magnesium chloride (MgCl2), 4.7 mM potassium chloride (KCl), 2.2 mM calcium chloride (CaCl2) and 120 mM sodium chloride (NaCl).
The compounds were diluted with 100% dimethyl sulfoxide (DMSO) at a starting concentration of 1 mM, 8 points of 5-fold serial gradient dilution was made.
3 μM [^14C]-labeled methyl α-D-glucopyranoside (Methyl a-D-glucopyranosid) was prepared with experimental buffer.
Cells were treated with 49 μL of experimental buffer, 1 μL of gradient-diluted compound and 50 μL of 3 μM [^14C]-isotope-labeled glucose solution at 37° C. for 2 hours.
Readings were taken with an isotope detector (Micro beta Reader).
The data were calculated by GraphPad Prism 5.0 software using the formula: log(inhibitor) vs. response—Variable slope to obtain the IC50 values of the tested compounds, and the experimental results are shown in Table 5.

[1] = molecular target: recombinant human dipeptidyl peptidase 4 (rhDPP4) (Homo sapiens, UniProt P27487); test: rhDPP4 inhibitor screening experiment; type: biochemical; settings: Gly-Pro-aminofluorescein substrate, 1 hour at room temperature
recombinant human dipeptidyl peptidase 4 (rhDPP4), sequence (P27487 whole entry): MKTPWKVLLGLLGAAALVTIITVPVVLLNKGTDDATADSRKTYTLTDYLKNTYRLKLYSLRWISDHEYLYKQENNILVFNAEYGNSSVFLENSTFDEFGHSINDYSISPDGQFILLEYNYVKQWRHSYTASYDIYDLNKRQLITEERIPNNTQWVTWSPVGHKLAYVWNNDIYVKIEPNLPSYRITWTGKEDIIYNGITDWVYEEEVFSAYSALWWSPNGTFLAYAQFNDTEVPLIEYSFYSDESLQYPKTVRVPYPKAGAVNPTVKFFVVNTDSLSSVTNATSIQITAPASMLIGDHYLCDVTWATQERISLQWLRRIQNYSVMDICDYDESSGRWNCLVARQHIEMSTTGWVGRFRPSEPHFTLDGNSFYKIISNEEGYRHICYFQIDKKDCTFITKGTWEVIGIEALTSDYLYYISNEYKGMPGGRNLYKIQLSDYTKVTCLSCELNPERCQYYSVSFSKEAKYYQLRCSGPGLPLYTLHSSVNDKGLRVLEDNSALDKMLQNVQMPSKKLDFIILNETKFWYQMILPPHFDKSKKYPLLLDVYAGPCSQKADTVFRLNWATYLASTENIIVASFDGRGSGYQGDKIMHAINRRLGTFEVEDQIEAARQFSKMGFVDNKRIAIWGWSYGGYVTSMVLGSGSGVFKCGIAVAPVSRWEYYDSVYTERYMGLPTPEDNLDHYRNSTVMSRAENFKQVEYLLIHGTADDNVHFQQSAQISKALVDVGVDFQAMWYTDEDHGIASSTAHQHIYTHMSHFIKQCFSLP
Source text: To evaluate the inhibitory activity of compounds against recombinant human dipeptidyl peptidase 4 (rhDPP4) by measuring the half-inhibitory concentration (IC50) values of the compounds. In the experiment, rhDPP4 was used to catalyze the generation of […] from substrate, the substrate was a luminescent precursor […], and the substrate and luciferase were reacted to generate a light signal, the intensity of the light signal was proportional to the enzyme activity.
• 1) The gradient diluted compounds (4-fold fold-dilution, 10 assay concentrations) were transferred 250 nL into a 384-well plate (PerkingElmer-6007299) using a non-contact nano-acoustic pipetting system (ECHO), and dimethyl sulfoxide (DMSO) concentration was 0.5% in the final reaction system. Blank control wells (containing DMSO, substrate and 10 mM Tris-HCl) and positive control wells (containing DMSO, substrate and rhDPP4) were set up. • 2) The pre-dispensed frozen buffer containing luciferase was removed and restored to room temperature, and then the substrate was added to configure a working solution with a substrate concentration of 20 μM. RhDPP4 was prepared as a working solution of 0.2 ng/mL using 10 mM Tris-HCl (pH 8.0) aqueous solution. • 3) 25 μL of working solution containing 20 μM substrate and 25 μL of working solution containing 0.2 ng/mL rhDPP4 were added to a 384-well plate with the addition of the compound, then the mixture was centrifuged for 30 s at 1000 rpm, the plate was sealed with aluminum foil sealing film and incubated for 1 hour at room temperature. • 4) The intensity of the light signal was detected by EnVision, a multifunctional microplate reader. The raw data were used to calculate the inhibition of rhDPP4 activity by the compound. % of inhibition activity=100−(compound well signal value−blank control well signal value)/(positive control well signal value−blank control well signal value)*100. • The percent of inhibition was imported into GraphPad Prism software for data processing to derive the corresponding dose-effect curves and to derive the IC50 values of the tested compounds.

[2] = In vivo DMPK study in mice; settings: male C57 mice; for Oral DNAUC (AUCPO/Dose): 10 mg/kg oral; for bioavailability / Cmax / clearance / half-life / Vd: mouse, plasma; for bioavailability: 1 mg/kg intravenous and 10 mg/kg oral, read-out: F % (oral bioavailability); for Cmax / clearance / half-life / Vd: single dose, 1 mg/kg intravenous or 10 mg/kg oral; for clearance: read-out: Cl (clearance rate); for half-life: read-out: T1/2 (half-life) (converted); for Vd: read-out: Vdss (volume of distribution)
Source text: Experimental purpose: Male C57 mice were used as test animals to determine blood concentrations of compounds and assess pharmacokinetic behavior after a single dose.
Experimental procedure: Six healthy adult male C57 mice were selected, three of them for the intravenous injection group and three of them for the oral group. The compounds to be tested were mixed with an appropriate amount of intravenous injection group solvent (20% polyethylene glycol-400 (PEG400)/10% polyethylene glycol-15 hydroxystearate (solutol)/70% H2O), the mixture was vortexed and sonicated to obtain 1 mg/mL clarified solution, then the clarified solution was filtered through a microporous membrane and prepared for use; solvent for the oral group was 20% polyethylene glycol-400 (PEG400)/10% polyethylene glycol-15 hydroxystearate (solutol)/70% H2O, and the compounds to be tested were mixed with the solvent, then the mixture was vortexed and sonicated to obtain 1 mg/mL clarified solution. After 1 mg/kg intravenous administration or 10 mg/kg oral administration in mice, whole blood was collected for a certain period of time, then the plasma was prepared to obtain, and the drug concentration was analyzed by LC-MS/MS method, then the pharmacokinetic parameters were calculated using Phoenix WinNonlin software (Pharsight, USA).

IC50 (Human-SGLT1) [nM]	IC50 [1] [nM]	Oral DNAUC (AUCPO/Dose) [2] [nM · h/mpk]	bioavailability [2] [%]	Cmax [2] [nM]	clearance [2] [mL/min/kg]	half-life [2] [h]	Vd [2] [L/kg]	Compound
1280	31	194.8	21.4	308	31.4	7.39	12.2	CS[C@H]1O[C@@H](c2ccc(F)c(Cc3ccc(O[C@@H]4CCN([C@H]5CO[C@H](c6cc(F)ccc6F)[C@@H](N)C5)C4)cc3)c2)[C@H](O)[C@@H](O)[C@@H]1O [WX001]
298	26.9	151.3	18.7	250	29.1	10.5	12	CS[C@H]1O[C@@H](c2cc(Cc3ccc(O[C@@H]4CCN([C@H]5CO[C@H](c6cc(F)ccc6F)[C@@H](N)C5)C4)cc3)c(F)cc2F)[C@H](O)[C@@H](O)[C@@H]1O [WX006]
